tested on: A549 NSCLC cells; assay: Cellular cytotoxicity assay (Alamar Blue), A549; type: cell-based; settings: Homo sapiens, 72 h, upper end given as ≧100, read-out: IC50 (μM), cytotoxicity towards A549 NSCLC cells
In short: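 Cells were dosed 24 h after seeding with semi-log compound dilutions in quadruplicate, then incubated 72 h at 37 °C, 5% CO2. Viability read by Resazurin reduction (4 h, fluorescence 544/590 nm) relative to untreated 0.5% DMSO controls; IC50 by non-linear regression.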

Row | SMILES | IC50 [µM]
1 | Nc1ccccc1NC(=O)c1nc2c(s1)CN(c1ccc(NC(=O)NCc3ccccc3)cc1)CC2 [Example 198, N-(2-aminophenyl)-5-{4-[(benzylcarbamoyl)amino]phenyl}-4,5,6,7-tetrahydro[1,3]thiazolo[5,4-c]pyridine-2-carboxamide] | ≥ 0.2
2 | CNC(=O)N1CCc2nc(C(=O)Nc3ccccc3N)sc2C1 [Example 17, N^2-(2-aminophenyl)-N^5-methyl-6,7-dihydro[1,3]thiazolo[5,4-c]pyridine-2,5(4H)-dicarboxamide] | ≥ 0.2
3 | CC(=Nc1ccccc1)N1CCc2nc(C(=O)Nc3ccccc3N)sc2C1 [Example 126, N-(2-aminophenyl)-5-[N-phenylethanimidoyl]-4,5,6,7-tetrahydro[1,3]thiazolo[5,4-c]pyridine-2-carboxamide] | ≥ 0.2
4 | COc1ccc(N)c(NC(=O)c2nc3c(s2)CN(C(=Nc2ccccc2)NC#N)CC3)c1 [Example 123, N-(2-amino-5-methoxyphenyl)-5-[(cyanoamino)(phenylimino)methyl]-4,5,6,7-tetrahydro[1,3]thiazolo[5,4-c]pyridine-2-carboxamide] | ≥ 0.2
5 | CCN(C(=O)N1CCc2nc(C(=O)Nc3ccccc3N)sc2C1)C(C)C [Example 21, N^2-(2-aminophenyl)-N^5-ethyl-N^5-isopropyl-6,7-dihydro[1,3]thiazolo[5,4-c]-pyridine-2,5(4H)-dicarboxamide] | ≥ 0.2
6 | Nc1ccccc1NC(=O)c1nc2c(s1)CN(C(=O)C(=O)NC1CCC(c3cccnc3)CC1)CC2 (stereo not shown) [Example 69, N-(2-aminophenyl)-5-{oxo[(4-pyridin-3-ylcyclohexyl)amino]acetyl}-4,5,6,7-tetrahydro[1,3]thiazolo[5,4-c]pyridine-2-carboxamide] | ≥ 0.2
7 | COc1ccc(NC(=O)C(=O)N2CCc3nc(C(=O)Nc4cc(C(C)C)ccc4N)sc3C2)cc1 [Example 81, N-(2-amino-5-isopropylphenyl)-5-{[(4-methoxyphenyl)amino](oxo)acetyl}-4,5,6,7-tetrahydro[1,3]thiazolo[5,4-c]pyridine-2-carboxamide] | ≥ 0.2
8 | COc1ccc(NC(=C[N+](=O)[O-])N2CCc3nc(C(=O)Nc4cc(OC)ccc4N)sc3C2)cc1 [Example 142, N-(2-amino-5-methoxyphenyl)-5-{1-[(4-methoxyphenyl)amino]-2-nitrovinyl}-4,5,6,7-tetrahydro[1,3]thiazolo[5,4-c]pyridine-2-carboxamide] | ≥ 0.2
9 | Nc1ccccc1NC(=O)c1nc2c(s1)CN(C(=O)C(=O)Nc1ccc3c(c1)OCO3)CC2 [Example 74, N-(2-aminophenyl)-5-[(1,3-benzodioxol-5-ylamino)(oxo)acetyl]-4,5,6,7-tetrahydro[1,3]thiazolo[5,4-c]pyridine-2-carboxamide] | ≥ 0.2
10 | CN(C)c1ccc(C(=O)N2CCc3nc(C(=O)Nc4ccccc4N)sc3C2)cc1 [Example 91, N-(2-aminophenyl)-5-[4-(dimethylamino)benzoyl]-4,5,6,7-tetrahydro[1,3]thiazolo[5,4-c]pyridine-2-carboxamide] | ≥ 0.2
11 | Nc1ccccc1NC(=O)c1nc2c(s1)CN(C(=O)c1cnc3ccccc3c1)CC2 [Example 94, N-(2-aminophenyl)-5-(quinolin-3-ylcarbonyl)-4,5,6,7-tetrahydro[1,3]thiazolo[5,4-c]pyridine-2-carboxamide] | ≥ 0.2
12 | COc1ccc(N)c(NC(=O)c2nc3c(s2)CN(C(=C[N+](=O)[O-])Nc2ccc(N(C)C)cc2)CC3)c1 [Example 144, N-(2-amino-5-methoxyphenyl)-5-[1-{[4-(dimethylamino)phenyl]amino}-2-nitrovinyl]-4,5,6,7-tetrahydro[1,3]thiazolo[5,4-c]pyridine-2-carboxamide] | ≥ 0.2
13 | Cc1ccccc1NC(=NC#N)N1CCc2nc(C(=O)Nc3ccccc3N)sc2C1 [Example 119, N-(2-aminophenyl)-5-{(cyanoimino)[(2-methylphenyl)amino]methyl}-4,5,6,7-tetrahydro[1,3]thiazolo[5,4-c]pyridine-2-carboxamide] | ≥ 0.2

From patent publication US8440830B2, “Tetrahydro-fused pyridines as histone deacetylase inhibitors” (4SC AG, priority 2007, dated 2013)
